Measurements from the supplement of paper PMC12420376.

Assays:
KURAMOCHI = assay: drug sensitivity score (DSS2) on cancer cell count; higher = more sensitive; extreme values may be limits of the assay; settings: 72 h
How it was run: (§1)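 Cancer cell counts came from 10× images (4 fields) of fixed cells immunostained for CK8/18 with Hoechst. The ovarian cancer cells had been grown alone or in 1:1 direct co-culture with lung or skin fibroblasts on 384-well plates pre-spotted acoustically with 528 approved and investigational compounds at 5 concentrations, then treated for 72 h. Breeze was used to derive a drug sensitivity score from logistic fits of the data.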

OVCAR8 = assay: as above; settings: 72 h
How it was run: as §1

[1] = co-cultured fibroblast: BJHTERT
[2] = co-cultured fibroblast: none (monoculture)

Row | Compound | drug sensitivity score (KURAMOCHI; [1]) [DSS] | drug sensitivity score (KURAMOCHI; co-cultured fibroblast: WI38) [DSS] | drug sensitivity score (KURAMOCHI; [2]) [DSS] | drug sensitivity score (OVCAR8; [1]) [DSS] | drug sensitivity score (OVCAR8; co-cultured fibroblast: WI38) [DSS] | drug sensitivity score (OVCAR8; [2]) [DSS]
1 | CC(C)(C)C[C@@H]1N[C@@H](C(=O)N[C@H]2CC[C@H](O)CC2)[C@H](c2cccc(Cl)c2F)[C@]12C(=O)Nc1cc(Cl)ccc12 | 0 | 0.1 | 0 | 2.5 | 0 | 0
2 | CC(C)(C)c1cc(NC(=O)Nc2ccc(Oc3ccnc4[nH]c(=O)cnc34)cc2F)n(-c2ccccc2)n1 | 10 | 6.1 | 7 | 6.6 | 3.4 | 4.6
3 | CC(C)Oc1ccc(C(=O)N[C@H](CNC(=O)CN(C)C)Cc2ccc(-c3cn4cccc([C@H](C)O)c4n3)cc2)cc1Cl | 18.1 | 22.6 | 22.8 | 18.3 | 14.2 | 16.6
4 | CCOc1ccn(-c2ccc(F)cc2)c(=O)c1C(=O)Nc1ccc(Oc2ccnc(N)c2Cl)c(F)c1 | 0.6 | 0 | 0 | 0 | 0 | 0
5 | CC[C@@H]1[C@H](F)C(=O)N[C@@H]1COc1nccc2cc(C(N)=O)c(OC)cc12 | 3.7 | 1.8 | 1.9 | 2.4 | 10.1 | 4
6 | CCc1cncnc1N1CCN(Cc2nc3ccc(C(F)(F)F)cc3[nH]2)CC1 | 1 | 0 | 2.1 | 1.3 | 0 | 2.4
7 | CCn1c(-c2nonc2N)nc2c(C#CC(C)(C)O)ncc(OC[C@H]3CCCNC3)c21 | 4.3 | 6.1 | 3.9 | 0.2 | 1.1 | 0.4
8 | CCn1c(-c2nonc2N)nc2cnc(Oc3cccc(NC(=O)c4ccc(OCCN5CCOCC5)cc4)c3)cc21 | 4.2 | 5.2 | 4.2 | 10.9 | 31.2 | 18.4
9 | CCn1c(C(=O)N(C2CC2)C2CC2)cc2c3c(ncn3C)c(Nc3cc(C)n(C)n3)nc21 | 3 | 1.5 | 0 | 0 | 1.1 | 1.3
10 | CCn1cc(-c2ccnc3[nH]c(-c4cccc(CN(C)C)c4)cc23)c(-c2ccc(NC(=O)N(C)C)cc2)n1 | 13.7 | 15.5 | 14.2 | 12.3 | 4.4 | 10
11 | CN(C)CC#Cc1ccc(OCCCc2sc(N3CCc4cccc(C(=O)Nc5nc6ccccc6s5)c4C3)nc2C(=O)O)c(F)c1 | 4.1 | 6.1 | 6.9 | 4.3 | 0 | 0.7
12 | CN(c1ncccc1CNc1nc(Nc2ccc3c(c2)CC(=O)N3)ncc1C(F)(F)F)S(C)(=O)=O | 11.5 | 10.7 | 12.6 | 8.5 | 6.6 | 6.2
13 | CN1CCN(C2CCC(n3cc(-c4ccc(Oc5ccccc5)cc4)c4c(N)ncnc43)CC2)CC1 (stereo not drawn) | 19.5 | 17.8 | 20.5 | 12.9 | 11.4 | 18.6
14 | CNC(=O)c1ccc(C)c(-n2c(C)cc(OCc3ccc(F)cc3F)c(Br)c2=O)c1 | 0.6 | 0 | 14.9 | 0.9 | 0 | 0
15 | CNC(=O)c1ccccc1Nc1nc(Nc2ccc3c(c2OC)CCC[C@H](N2CCN(CCO)CC2)C3)ncc1Cl | 6.7 | 2.2 | 9.5 | 7.3 | 2.2 | 11.1
16 | CNS(=O)(=O)Nc1nccc(Cc2c(C)c3ccc(Oc4ncccn4)cc3oc2=O)c1F | 0 | 0 | 4.3 | 0 | 5.7 | 0.2
17 | CNc1nc(-c2ccc3c(N)n[nH]c3c2)cc(N2C[C@@H](C(=O)NC3CCCCC3)CC[C@H]2C)n1 | 3.2 | 3.1 | 6.5 | 1.3 | 0.1 | 2.8
18 | CNc1ncc2cc(-c3cc(NC(=O)NCCC(C)(C)C)c(F)cc3C)c(C)nc2n1 | 12.7 | 10.2 | 9.9 | 13.1 | 15.7 | 14.7
19 | CONC(=O)c1ccccc1Nc1cc(Nc2cc(C)nn2C(C)C)ncc1Cl | 3.3 | 0 | 0.2 | 0.8 | 4.2 | 0

Row | Compound | drug sensitivity score (KURAMOCHI; [1]) [DSS] | drug sensitivity score (KURAMOCHI; co-cultured fibroblast: WI38) [DSS] | drug sensitivity score (KURAMOCHI; [2]) [DSS] | drug sensitivity score (OVCAR8; [1]) [DSS] | drug sensitivity score (OVCAR8; co-cultured fibroblast: WI38) [DSS] | drug sensitivity score (OVCAR8; [2]) [DSS]
20 | CO[C@@H](C)Cn1c(=O)n(C)c2cnc3ccc(-c4cncc(C(C)(C)O)c4)cc3c21 | 11.9 | 10.9 | 9.2 | 9.6 | 9.6 | 9.8
21 | COc1cc2ncnc(Oc3cccc(NC(=O)Nc4cc(C(C)(C)C(F)(F)F)on4)c3)c2cc1OC | 0 | 1.4 | 0 | 0 | 0 | 0.8
22 | COc1ccc(Cn2ccc3ccc(C(=O)NO)cc32)cc1 | 6.6 | 2.3 | 3.2 | 2.5 | 0.7 | 3
23 | COc1ccc2[nH]cc(/C=C3\C(=O)Nc4ccc(NC(=O)CCN5CCCCC5)cc43)c2c1 | 7.6 | 9.6 | 9.2 | 4 | 9.8 | 8.6
24 | C[C@@H](Oc1cc(-n2cnc3ccc(CN4CCN(C)CC4)cc32)sc1C(N)=O)c1ccccc1C(F)(F)F | 28 | 27.7 | 25.3 | 42.4 | 32.3 | 31
25 | C[C@@H](Oc1ccc2[nH]nc(/C=C/c3cnn(CCO)c3)c2c1)c1c(Cl)cncc1Cl | 5.7 | 2.2 | 6.7 | 8.2 | 9.2 | 8
26 | C[C@@H]1CN(CC(=O)Nc2ccc3c(c2)Cc2cccc(-c4cc(=O)cc(N5CCOCC5)o4)c2S3)C[C@H](C)O1 | 3.2 | 0.2 | 2.5 | 7.6 | 5.6 | 0.7
27 | C[C@@]1(C(=O)Nc2ccc(F)nc2)CCCN1c1nc(Nc2cc(C3CC3)n[nH]2)c2cccn2n1 | 13.3 | 5.5 | 10.8 | 11.6 | 13 | 14
28 | C[C@H]1C[C@@H](n2c(Nc3ccc(OC(F)(F)F)cc3)nc3cc(CCC(=O)O)ccc32)CC(C)(C)C1 | 0 | 0 | 0 | 0 | 0 | 0
29 | C[C@H]1Oc2cc(cnc2N)-c2c(nn(C)c2C#N)CN(C)C(=O)c2ccc(F)cc21 | 0.7 | 0 | 0 | 0.4 | 8.7 | 5.7
30 | Cc1c(-c2c(-c3ccc(F)o3)sc3ncnc(O[C@H](Cc4ccccc4OCc4ccnn4CC(F)(F)F)C(=O)O)c23)ccc(OCCN2CCN(C)CC2)c1Cl | 0 | 0 | 0 | 0 | 0 | 0
31 | Cc1c(-c2ccc(N3CCc4cccc(C(=O)Nc5nc6ccccc6s5)c4C3)nc2C(=O)O)cnn1CC12CC3CC(CC(C3)C1)C2 | 3 | 8.2 | 3.8 | 1.6 | 0 | 1.6
32 | Cc1c(Cn2c(C)nc3c(C(=O)O)cc(N4CCOCC4)cc32)cccc1C(F)(F)F | 5.5 | 0.3 | 6.9 | 3.7 | 0 | 0
33 | Cc1ccc(C(=O)N(CCCN)[C@@H](c2oc3cc(Cl)ccc3c(=O)c2Cc2ccccc2)C(C)C)cc1 | 8.3 | 17.2 | 14.6 | 5.2 | 7.6 | 29.1
34 | Cc1cccc(CC(=O)N2CCc3c2ccc(-c2cn(C)c4ncnc(N)c24)c3F)n1 | 0.3 | 0 | 0 | 1.4 | 0 | 0
35 | Cc1nc(Nc2n[nH]c3c2CN(C(=O)N[C@H](CN(C)C)c2ccccc2)C3(C)C)c2sccc2n1 | 21 | 24.6 | 19.4 | 20.8 | 9.4 | 15.5
36 | Cc1ncc(Cl)cc1NCc1ccc(C(=O)N[C@@H](CC2CCCC2)C(=O)NC2CC2)s1 | 0 | 0 | 0 | 0 | 0 | 0
37 | Cc1nn(C)c(COc2ccc(N3CCN(S(=O)(=O)N(C)C)CC3)cc2)c1-c1cccc2c(CCCOc3cccc4ccccc34)c(C(=O)O)n(CCN3CCOCC3)c12 | 5.7 | 8.5 | 10.3 | 4.7 | 4 | 8.2
38 | Cn1cc(-c2ccc(F)c(C(F)(F)F)c2)nc1C1CCN(c2ncnc3[nH]ncc23)CC1 | 1 | 0 | 0 | 0 | 0 | 0.6

Row | Compound | drug sensitivity score (KURAMOCHI; [1]) [DSS] | drug sensitivity score (KURAMOCHI; co-cultured fibroblast: WI38) [DSS] | drug sensitivity score (KURAMOCHI; [2]) [DSS] | drug sensitivity score (OVCAR8; [1]) [DSS] | drug sensitivity score (OVCAR8; co-cultured fibroblast: WI38) [DSS] | drug sensitivity score (OVCAR8; [2]) [DSS]
39 | Cn1cc(C2=Nc3cc(NC(=O)C(N)C4CCCCC4)cc4c3C2=CNNC4=O)cn1 (stereo not drawn) | 14.6 | 12.1 | 21 | 16.2 | 13 | 16.7
40 | N#Cc1ccc(COC[C@H]2O[C@@H](n3c(NCc4ccc(Cl)c(Cl)c4)nc4c(N)ncnc43)[C@H](O)[C@@H]2O)cc1 | 4.2 | 3.3 | 3.1 | 1 | 0 | 5.5
41 | NCC(=O)Nc1ccc(-n2nc(C(F)(F)F)cc2-c2ccc3c(ccc4ccccc43)c2)cc1 | 2.6 | 4.1 | 8 | 0 | 0 | 9.7
42 | NC[C@@](O)(c1ccc(Cl)cc1)c1ccc(-c2cn[nH]c2)cc1 | 0 | 4.2 | 3 | 3.3 | 10.7 | 5.1
43 | Nc1nccc(-c2c(-c3ccc(F)cc3)ncn2C2CCCCC2)n1 | 5.1 | 4 | 4.1 | 1.4 | 0 | 1.2
44 | Nc1ncnc2c1c(COc1cccc(Cl)c1)nn2C1CCOCC1 | 0 | 0 | 0 | 0 | 0 | 0
45 | O=C(NC[C@H](O)CN1CCc2ccccc2C1)c1cc(NC2COC2)ncn1 | 0.1 | 0 | 0 | 0 | 0 | 0
46 | O=C(NCc1ccncc1)C12CC3CC(C1)CC(c1ccc(Cl)cc1)(C3)C2 | 5.8 | 5.6 | 3.7 | 3.9 | 3.6 | 5
47 | O=C(NOC[C@H](O)CO)c1ccc(F)c(F)c1Nc1ccc(I)cc1F | 8.8 | 0.8 | 3.3 | 7.7 | 0 | 10.6
48 | O=C(Nc1ccc2[nH]nc(-c3ccncc3)c2c1)[C@@H]1CCN(CC(=O)N2CCN(c3ccc(-c4ncccn4)cc3)CC2)C1 | 13.5 | 12.4 | 15.5 | 16.6 | 10.2 | 15.5
49 | O=C(O)c1ccc(-c2c[nH]c3ncc(-c4ccccc4)cc23)cc1C1CCCC1 | 6.8 | 7.3 | 7.1 | 2 | 4.8 | 8.1
50 | O=C(O)c1ccc(CN2CCC(CN[C@@H]3C[C@H]3c3ccccc3)CC2)cc1 | 0.9 | 0 | 0 | 0 | 0 | 2.2
51 | O=C1Cc2cc(C(=O)NC3C[C@H]4CC[C@@H](C3)N4S(=O)(=O)CC3CCN(CCCC(F)(F)F)CC3)c(Cl)cc2N1 (stereo partly drawn) | 0 | 0.1 | 0 | 0 | 0 | 0
52 | O=c1[nH]c(C2CCCN2)nc2c1oc1ccc(Cl)cc12 (stereo not drawn) | 2.2 | 5.4 | 4.1 | 4.4 | 1.8 | 2.8
53 | CCN(CC)CCCC(C)Nc1ccnc2cc(Cl)ccc12 (stereo not drawn) [Chloroquine] |  |  |  | 12.8 | 6.4 | 6.4
54 | Nc1ccn([C@@H]2O[C@H](CO)[C@@H](O)[C@@H]2O)c(=O)n1 [Cytarabine] |  |  |  | 20.1 | 18.3 | 25.2
55 | Cc1ccc(NC(=O)c2ccc(CN3CCN(C)CC3)cc2)cc1Nc1nccc(-c2cccnc2)n1 [Imatinib] |  |  |  | 2 | 7.3 | 1.4
56 | CC[C@H](CO)Nc1nc(NCc2ccccc2)c2ncn(C(C)C)c2n1 [Seliciclib] |  |  |  | 4.9 | 6.1 | 
